Measurements reported in ChEMBL document CHEMBL1909046, “DrugMatrix in vitro pharmacology data”.

How the values were obtained:
[1] = target: Acetylcholinesterase (Homo sapiens, UniProt P22303); assay: DRUGMATRIX: Acetylcholinesterase enzyme inhibition (substrate: acetylthiocholine); type: cell-based, HEK293; details: hek293; Not Active = under 50% inhibition at 10 µM
[2] = target: Beta-3 adrenergic receptor (Homo sapiens, UniProt P13945); assay: DRUGMATRIX: Adrenergic beta3 radioligand binding (ligand: [125I] Cyanopindolol); type: cell membranes, HEK293, Membrane; details: hek293; Not Active = under 50% inhibition at 10 µM
[3] = target: Estrogen receptor beta (Homo sapiens, UniProt Q92731); details: sf9; also: in other assays of this panel Not Active means under 50% inhibition at 10 µM
[4] = target: Histamine H2 receptor (Homo sapiens, UniProt P25021); type: cell membranes, CHO-K1, Membrane; details: cho-k1; also: in other assays of this panel Not Active means under 50% inhibition at 10 µM
[5] = target: T1, Alpha-2A adrenergic receptor (Homo sapiens, UniProt P08913); type: cell membranes, Sf9, Membrane; also: in other assays of this panel Not Active means under 50% inhibition at 10 µM
T1 sequence (P08913 whole entry): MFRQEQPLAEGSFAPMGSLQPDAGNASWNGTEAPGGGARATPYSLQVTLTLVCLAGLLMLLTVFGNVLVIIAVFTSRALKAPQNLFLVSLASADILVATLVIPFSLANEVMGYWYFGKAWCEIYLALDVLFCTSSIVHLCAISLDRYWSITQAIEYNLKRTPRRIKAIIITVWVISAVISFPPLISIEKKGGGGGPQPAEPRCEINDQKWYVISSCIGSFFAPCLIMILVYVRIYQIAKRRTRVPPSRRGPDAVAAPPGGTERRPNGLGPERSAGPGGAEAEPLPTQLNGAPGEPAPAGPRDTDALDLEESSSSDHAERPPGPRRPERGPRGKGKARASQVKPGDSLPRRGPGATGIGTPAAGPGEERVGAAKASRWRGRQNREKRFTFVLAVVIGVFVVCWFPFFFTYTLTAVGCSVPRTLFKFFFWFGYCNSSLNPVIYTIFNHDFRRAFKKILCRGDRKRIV

[6] = DRUGMATRIX: Sodium/nucleoside co-transporter radioligand binding (ligand: nitrobenzylthioinosine); type: cell membranes, Cavia porcellus, Dunkin-Hartley, Cerebral cortex, Membrane; details: Not Active = under 50% inhibition at 10 µM

Chain of Beta-3 adrenergic receptor (P13945 whole entry): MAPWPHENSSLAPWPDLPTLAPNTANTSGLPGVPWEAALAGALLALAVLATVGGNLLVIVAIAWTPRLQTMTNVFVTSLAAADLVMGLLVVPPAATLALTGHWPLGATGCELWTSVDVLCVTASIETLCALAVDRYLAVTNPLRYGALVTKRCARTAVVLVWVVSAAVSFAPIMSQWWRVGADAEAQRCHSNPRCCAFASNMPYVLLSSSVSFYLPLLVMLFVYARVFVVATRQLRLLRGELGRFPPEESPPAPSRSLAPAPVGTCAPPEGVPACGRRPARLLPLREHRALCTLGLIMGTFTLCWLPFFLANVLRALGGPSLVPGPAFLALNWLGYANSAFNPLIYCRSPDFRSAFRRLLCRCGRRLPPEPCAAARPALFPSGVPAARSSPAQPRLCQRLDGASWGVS
Chain of Histamine H2 receptor (P25021 whole entry): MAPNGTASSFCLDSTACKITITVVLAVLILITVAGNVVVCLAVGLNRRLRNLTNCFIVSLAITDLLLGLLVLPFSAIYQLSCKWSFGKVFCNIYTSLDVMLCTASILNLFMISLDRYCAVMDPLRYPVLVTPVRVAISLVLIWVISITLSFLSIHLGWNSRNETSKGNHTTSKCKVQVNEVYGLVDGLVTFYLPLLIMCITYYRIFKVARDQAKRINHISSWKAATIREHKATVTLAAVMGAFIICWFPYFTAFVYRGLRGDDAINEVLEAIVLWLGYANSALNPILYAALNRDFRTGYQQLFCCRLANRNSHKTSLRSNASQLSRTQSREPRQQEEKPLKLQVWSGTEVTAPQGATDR
Chain of Acetylcholinesterase (P22303 whole entry): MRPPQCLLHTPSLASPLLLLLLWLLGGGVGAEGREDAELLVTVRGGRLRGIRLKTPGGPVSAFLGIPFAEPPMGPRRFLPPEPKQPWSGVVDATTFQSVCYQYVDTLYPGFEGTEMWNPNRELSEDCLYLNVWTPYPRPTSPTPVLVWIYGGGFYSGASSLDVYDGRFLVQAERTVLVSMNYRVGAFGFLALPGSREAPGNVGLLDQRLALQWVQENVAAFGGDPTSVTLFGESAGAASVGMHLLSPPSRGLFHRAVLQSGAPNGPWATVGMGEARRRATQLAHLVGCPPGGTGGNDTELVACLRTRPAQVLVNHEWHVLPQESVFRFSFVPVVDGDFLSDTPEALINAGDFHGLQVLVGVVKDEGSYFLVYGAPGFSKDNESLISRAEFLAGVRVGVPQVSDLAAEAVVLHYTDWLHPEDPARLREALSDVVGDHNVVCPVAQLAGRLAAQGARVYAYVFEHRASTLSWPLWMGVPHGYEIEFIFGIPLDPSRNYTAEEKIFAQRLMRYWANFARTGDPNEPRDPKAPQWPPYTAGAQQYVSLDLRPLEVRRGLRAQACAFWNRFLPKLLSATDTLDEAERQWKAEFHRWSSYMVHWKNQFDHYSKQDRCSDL
Chain of Estrogen receptor beta (Q92731 whole entry): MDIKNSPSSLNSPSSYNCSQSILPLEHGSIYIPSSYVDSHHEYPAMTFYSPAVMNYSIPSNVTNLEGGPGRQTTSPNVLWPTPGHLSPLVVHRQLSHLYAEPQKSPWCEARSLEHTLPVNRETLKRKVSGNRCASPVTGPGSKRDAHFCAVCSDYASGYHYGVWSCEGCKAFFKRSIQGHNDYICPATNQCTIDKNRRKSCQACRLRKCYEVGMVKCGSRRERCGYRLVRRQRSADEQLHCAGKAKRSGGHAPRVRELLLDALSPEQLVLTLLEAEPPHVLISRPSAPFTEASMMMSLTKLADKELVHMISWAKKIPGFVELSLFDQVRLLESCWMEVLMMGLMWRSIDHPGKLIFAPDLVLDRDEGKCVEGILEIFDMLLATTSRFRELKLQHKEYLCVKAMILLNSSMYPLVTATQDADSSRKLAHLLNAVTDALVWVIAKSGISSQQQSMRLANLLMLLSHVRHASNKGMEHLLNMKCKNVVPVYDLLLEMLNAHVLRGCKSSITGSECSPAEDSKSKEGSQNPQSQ

Row | Molecule | IC50 [1] | IC50 [2] | IC50 [3] | IC50 [4] | IC50 ([5]; sf9) | IC50 [6] | Ki [6] | IC50 ([5]; read-out: IC50) [µM] | Ki ([5]; read-out: Ki) [µM] | Ki [1] | Ki [2] | Ki [3] | Ki [4] | Ki ([5]; sf9)
1 | CO[C@H]1/C=C/O[C@@]2(C)Oc3c(C)c(O)c4c(O)c(c(/C=N/N5CCN(C6CCCC6)CC5)c(O)c4c3C2=O)NC(=O)/C(C)=C\C=C\[C@H](C)[C@H](O)[C@@H](C)[C@@H](O)[C@@H](C)[C@H](OC(C)=O)[C@@H]1C [RIFAPENTINE] | Not Active | Not Active | Not Active | Not Active | Not Active | Not Active | Not Active | – | – | – | – | – | – | –
2 | CCCCOc1cc(CC2CNC(=O)N2)ccc1OC (centres undefined) [RO-201724] | Not Active | Not Active | Not Active | Not Active | Not Active | Not Active | Not Active | – | – | – | – | – | – | –
3 | CC[C@@H](C(=O)[C@@H](C)[C@@H](O)[C@H](C)[C@@H]1O[C@@H]([C@@H](CC)C(=O)O)CC[C@@H]1C)[C@H]1O[C@]2(C=C[C@@H](O)[C@]3(CC[C@@](C)([C@H]4CC[C@](O)(CC)[C@H](C)O4)O3)O2)[C@H](C)C[C@@H]1C [SALINOMYCIN] | Not Active | Not Active | Not Active | Not Active | Not Active | Not Active | Not Active | – | – | – | – | – | – | –
4 | CC(C)NCC(O)c1ccc(NS(C)(=O)=O)cc1 (centres undefined) [SOTALOL] | Not Active | Not Active | Not Active | Not Active | Not Active | Not Active | Not Active | – | – | – | – | – | – | –
5 | NC(=O)N1C(=O)/C(=C(\O)c2cccs2)c2cc(Cl)ccc21 [TENIDAP] | Not Active | Not Active | Not Active | Not Active | Not Active | Not Active | Not Active | – | – | – | – | – | – | –
6 | COc1cc2nc(N3CCN(C(=O)C4CCCO4)CC3)nc(N)c2cc1OC (centres undefined) [TERAZOSIN] | Not Active | Not Active | Not Active | Not Active | – | Not Active | Not Active | 13.8 | 5.19 | – | – | – | – | –
7 | CN(C/C=C/C#CC(C)(C)C)Cc1cccc2ccccc12 [TERBINAFINE] | Not Active | Not Active | Not Active | Not Active | – | Not Active | Not Active | 5.7 | 2.14 | – | – | – | – | –
8 | CCN(CC)CCNC(=O)c1cc(S(C)(=O)=O)ccc1OC [TIAPRIDE] | Not Active | Not Active | Not Active | Not Active | – | Not Active | Not Active | 2.08 | 0.779 | – | – | – | – | –
9 | NC1CCN(c2nc3c(cc2F)c(=O)c(C(=O)O)cn3-c2ccc(F)cc2F)C1 (centres undefined) [TOSUFLOXACIN] | Not Active | Not Active | Not Active | Not Active | Not Active | Not Active | Not Active | – | – | – | – | – | – | –
10 | O=C(Nc1ccc(Br)cc1)c1cc(Br)cc(Br)c1O [TRIBROMSALAN] | Not Active | Not Active | Not Active | Not Active | Not Active | Not Active | Not Active | – | – | – | – | – | – | –
11 | CC(c1cc2ccccc2s1)N(O)C(N)=O (centres undefined) [ZILEUTON] | Not Active | Not Active | Not Active | Not Active | Not Active | Not Active | Not Active | – | – | – | – | – | – | –
12 | MANGANESE CHLORIDE ANHYDROUS | Not Active | Not Active | Not Active | Not Active | Not Active | Not Active | Not Active | – | – | Not Active | Not Active | Not Active | Not Active | Not Active
13 | SODIUM ORTHOVANAD | Not Active | Not Active | Not Active | Not Active | Not Active | Not Active | Not Active | – | – | Not Active | Not Active | Not Active | Not Active | Not Active
